Tests used:
Epidermophyton floccosum [1] = assay: Agar dilution method, growth on Sabouraud dextrose agar slants; format: cell-based; parameters: key to Fungal growth: +++: Maximum Fungal Growth; ++: Moderate Fungal Growth; +: Minimum Fungal Growth; +/−: Very little Fungal Growth; −: No Fungal Growth; details: 12th day after inoculation
Protocol: (§1) Agar dilution method. Sabouraud Dextrose Agar (Difco Laboratories, Michigan) was prepared according to the manufacturer's instructions. Five ml was dispensed in a 100×25 mm tube and autoclaved. To each tube containing 5.0 ml of liquid agar at 45° C., 0.5, 0.25, 0.12, or 0.063 ml of a DMSO solution of the compound was added to give the final indicated concentrations in Table 2. The agar was then solidified in slants. Fungal cultures were inoculated. The slants were incubated at 25-28° C. for 10-12 days, and the growth of the fungus was recorded every second day.

Microsporum audouinii = assay: Summary of anti-fungal assays (direct addition, agar dilution, liquid culture); format: cell-based; details: stated in words (Tables 1a/1b, text to Table 5)
Protocol: (§2) This example summarizes the results of various other assays of the anti-fungal activity of betulin derivatives. Table 5 summarizes results using different assay methods—direct addition, agar dilution, and direct addition to liquid culture, as disclosed in the previous three Examples. In some cases, only one type of assay was done with a compound. In other cases, the compound was tested by multiple assays.

Microsporum audouinni [2] = assay: Agar dilution method, growth on Sabouraud dextrose agar slants; format: cell-based, Microsporum audouinii; parameters: key: +++: Maximum Fungal Growth; ++: Moderate Fungal Growth; +: Minimum Fungal Growth; +/−: Very little Fungal Growth; −: No Fungal Growth; details: 12th day after inoculation
Protocol: as §1

Pityrosporum ovale [3] = assay: Direct addition into the Pityrosporum agar; format: cell-based; parameters: key to Pityrosporum ovale growth: +++: Maximum Growth; ++: Moderate Growth; +: Minimum Growth; +/−: Very Little Growth; −: No Growth; details: 4 mg/ml in the agar; 18 hours after inoculation
Protocol: Direct addition method. Sabouraud dextrose agar was prepared according to the manufacturer's instructions and 5.0 ml was dispensed in each 100×25 mm tube. The tubes were autoclaved. To each tube containing 5.0 ml of liquid agar at 45° C., 20 mg of solid test compound was added, to give a final concentration of 4 mg/ml. The agar was solidified in slants. The fungal cultures were then innoculated. […]

[4] = test system: Trichophyton mentagrophyte; assay: Agar dilution method, growth on Sabouraud dextrose agar slants; format: cell-based, Trichophyton mentagrophytes; parameters: key to Fungal growth: +++: Maximum Fungal Growth; ++: Moderate Fungal Growth; +: Minimum Fungal Growth; +/−: Very little Fungal Growth; −: No Fungal Growth; details: 12th day after inoculation
Protocol: as §1

Epidermophyton floccosum [5] = assay: Direct addition method, solid compound in Sabouraud dextrose agar; format: cell-based; parameters: key: +++: Maximum Fungal Growth; ++: Moderate Fungal Growth; +: Minimum Fungal Growth; +/−: Very little Fungal Growth; −: No Fungal Growth; details: 4 mg/mL of agar; 12th day after inoculation
Protocol: (§3) Direct addition method. Sabouraud dextrose agar was prepared according to the manufacturer's instructions and 5.0 ml was dispensed in each 100×25 mm tube. The tubes were autoclaved. To each tube containing 5.0 ml of liquid agar at 45° C., 20 mg of solid test compound was added, to give a final concentration of 4 mg/ml. The agar was solidified in slants. The fungal cultures were then innoculated. The slants were incubated at 25-28 ° C. for 10-12 days, and the growth of the fungus was recorded every second day. The results in Table 2 indicate growth at the 12th day of inoculation.

Trichophyton rubrum [6] = assay: as above; format: cell-based; parameters: key: +++: Maximum Fungal Growth; ++: Moderate Fungal Growth; +: Minimum Fungal Growth; +/−: Very little Fungal Growth; −: No Fungal Growth; details: 4 mg/mL of agar; 12th day after inoculation
Protocol: as §3

Pityrosporum ovale [7] = assay: as above; format: cell-based; parameters: key: +++: Maximum Fungal Growth; ++: Moderate Fungal Growth; +: Minimum Fungal Growth; +/−: Very little Fungal Growth; −: No Fungal Growth; details: 4 mg/mL of agar; 12th day after inoculation
Protocol: as §3

Microsporum canis [8] = assay: as above; format: cell-based; parameters: key: +++: Maximum Fungal Growth; ++: Moderate Fungal Growth; +: Minimum Fungal Growth; +/−: Very little Fungal Growth; −: No Fungal Growth; details: 4 mg/mL of agar; 12th day after inoculation
Protocol: as §3

Microsporum audouinni [9] = assay: as above; format: cell-based, Microsporum audouinii; parameters: key to Fungal growth: +++: Maximum Fungal Growth; ++: Moderate Fungal Growth; +: Minimum Fungal Growth; +/−: Very little Fungal Growth; −: No Fungal Growth; details: for Fungal growth: 4 mg/mL of agar, 12th day after inoculation; for best anti-fungal or anti-yeast activity by the direct addition method: against Microsporum audouinii
Protocol: as §3

Trichophyton tonsuran = assay: Agar dilution method, growth on Sabouraud dextrose agar slants; format: cell-based, Trichophyton tonsurans; parameters: key: +++: Maximum Fungal Growth; ++: Moderate Fungal Growth; +: Minimum Fungal Growth; +/−: Very little Fungal Growth; −: No Fungal Growth; details: 12th day after inoculation
Protocol: as §1

Trichophyton rubrum [10] = assay: as above; format: cell-based; parameters: key: +++: Maximum Fungal Growth; ++: Moderate Fungal Growth; +: Minimum Fungal Growth; +/−: Very little Fungal Growth; −: No Fungal Growth; details: 12th day after inoculation
Protocol: as §1

Microsporum gypseum = assay: as above; format: cell-based; parameters: key: +++: Maximum Fungal Growth; ++: Moderate Fungal Growth; +: Minimum Fungal Growth; +/−: Very little Fungal Growth; −: No Fungal Growth; details: 12th day after inoculation
Protocol: as §1

Pityrosporum ovale [11] = assay: as above; format: cell-based; parameters: key: +++: Maximum Fungal Growth; ++: Moderate Fungal Growth; +: Minimum Fungal Growth; +/−: Very little Fungal Growth; −: No Fungal Growth; details: 12th day after inoculation
Protocol: as §1

Microsporum canis [12] = assay: as above; format: cell-based; parameters: key: +++: Maximum Fungal Growth; ++: Moderate Fungal Growth; +: Minimum Fungal Growth; +/−: Very little Fungal Growth; −: No Fungal Growth; details: 12th day after inoculation
Protocol: as §1

Epidermophyton floccosum [13] = assay: Summary of anti-fungal assays (direct addition, agar dilution, liquid culture); format: cell-based; details: stated in words (Tables 1a/1b, text to Table 5)
Protocol: as §2

Structure (SMILES) | Fungal growth (Epidermophyton floccosum [1]; 125 μg/ml) | Fungal growth (Epidermophyton floccosum [1]; 250 μg/ml) | Fungal growth (Epidermophyton floccosum [1]; 500 μg/ml) | Active against Microsporum audouinii (Microsporum audouinii) | Fungal growth (Microsporum audouinni [2]; 125 μg/ml) | Fungal growth (Microsporum audouinni [2]; 250 μg/ml) | Fungal growth (Microsporum audouinni [2]; 500 μg/ml) | Pityrosporum ovale growth (Pityrosporum ovale [3]) | Fungal growth ([4]; 125 μg/ml) | Fungal growth ([4]; 250 μg/ml) | Fungal growth ([4]; 500 μg/ml) | Fungal growth (Epidermophyton floccosum [5]) | Fungal growth (Trichophyton rubrum [6]) | Fungal growth (Pityrosporum ovale [7]) | Fungal growth (Microsporum canis [8]) | Fungal growth (Microsporum audouinni [9]) | Fungal growth (Trichophyton tonsuran; 125 μg/ml) | Fungal growth (Trichophyton tonsuran; 250 μg/ml) | Fungal growth (Trichophyton tonsuran; 500 μg/ml) | Fungal growth (Trichophyton rubrum [10]; 125 μg/ml) | also measured
CC1(C)CCC23CC[C@@]4(C)C(CCC5[C@@]6(C)CCC(OC(=O)CCC(=O)O)C(C)(C)C6CC[C@]54C)C2C1OC3 (stereo partly shown) [Allobetulin-3-succinate] | ++ | + | − | Microsporum audouinii | ++ | − | − | + | + | +/− | − | − | + | − | + | + | ++ | + | − | ++ | Fungal growth (Epidermophyton floccosum [1]; 62.5 μg/ml): ++; Fungal growth (Microsporum audouinni [2]; 62.5 μg/ml): ++; Fungal growth ([4]; 62.5 μg/ml): ++; Fungal growth (Trichophyton tonsuran; 62.5 μg/ml): ++; Fungal growth (Trichophyton rubrum [10]; 62.5 μg/ml): ++; Fungal growth (Trichophyton rubrum [10]; 250 μg/ml): −; Fungal growth (Trichophyton rubrum [10]; 500 μg/ml): −; Fungal growth (Microsporum gypseum; 62.5 μg/ml): +++; Fungal growth (Microsporum gypseum; 125 μg/ml): ++; Fungal growth (Microsporum gypseum; 250 μg/ml): +; Fungal growth (Microsporum gypseum; 500 μg/ml): −; Fungal growth (Pityrosporum ovale [11]; 62.5 μg/ml): +++; Fungal growth (Pityrosporum ovale [11]; 125 μg/ml): +++; Fungal growth (Pityrosporum ovale [11]; 250 μg/ml): +++; Fungal growth (Pityrosporum ovale [11]; 500 μg/ml): +; Fungal growth (Microsporum canis [12]; 62.5 μg/ml): ++; Fungal growth (Microsporum canis [12]; 125 μg/ml): ++; Fungal growth (Microsporum canis [12]; 250 μg/ml): −; Fungal growth (Microsporum canis [12]; 500 μg/ml): −
C=C(C)[C@@H]1CC[C@]2(COC(=O)/C=C\C(=O)O)CC[C@]3(C)[C@H](CC[C@@H]4[C@@]5(C)CC[C@H](OC(=O)/C=C\C(=O)O)C(C)(C)[C@@H]5CC[C@]43C)[C@@H]12 [Betulin-3,28-dimaleate] |  |  |  | Microsporum audouinii |  |  |  | + |  |  |  | − | + | − | + | − |  |  |  |  | best anti-fungal or anti-yeast activity by the direct addition method (Microsporum audouinni [9]): against Microsporum audouinii
C=C(C)C1CCC2(COC(=O)COCC(=O)O)CCC3(C)C(CCC4C5(C)CCC(O)C(C)(C)C5CCC43C)C12 (stereo not shown) [Betulin-28-diglycolate] |  |  |  |  |  |  |  |  |  |  |  |  |  |  |  |  |  |  |  |  | Active against Epidermophyton floccosum (Epidermophyton floccosum [13]): against Epidermophyton floccosum
C=C(C)C1CCC2(COC(=O)CCC(=O)O)CC[C@@]3(C)C(CCC4[C@@]5(C)CCC(O)C(C)(C)C5CC[C@]43C)C12 (stereo partly shown) [Betulin-28-succinate] | ++ | + | + | Microsporum audouinii | + | +/− | − | + | ++ | + | + | − | + | − | + | − | ++ | + | + | + | Fungal growth (Epidermophyton floccosum [1]; 1000 μg/ml): −; Fungal growth (Microsporum audouinni [2]; 1000 μg/ml): −; Fungal growth ([4]; 1000 μg/ml): −; best anti-fungal or anti-yeast activity by the direct addition method (Microsporum audouinni [9]): against Microsporum audouinii; Fungal growth (Trichophyton tonsuran; 1000 μg/ml): −; Fungal growth (Trichophyton rubrum [10]; 250 μg/ml): +; Fungal growth (Trichophyton rubrum [10]; 500 μg/ml): +; Fungal growth (Trichophyton rubrum [10]; 1000 μg/ml): −; Fungal growth (Microsporum gypseum; 125 μg/ml): ++; Fungal growth (Microsporum gypseum; 250 μg/ml): +; Fungal growth (Microsporum gypseum; 500 μg/ml): +; Fungal growth (Microsporum gypseum; 1000 μg/ml): −; Fungal growth (Pityrosporum ovale [11]; 125 μg/ml): +++; Fungal growth (Pityrosporum ovale [11]; 250 μg/ml): +++; Fungal growth (Pityrosporum ovale [11]; 500 μg/ml): +++; Fungal growth (Pityrosporum ovale [11]; 1000 μg/ml): ++; Fungal growth (Microsporum canis [12]; 125 μg/ml): +; Fungal growth (Microsporum canis [12]; 250 μg/ml): +; Fungal growth (Microsporum canis [12]; 500 μg/ml): +; Fungal growth (Microsporum canis [12]; 1000 μg/ml): −

From patent US6642217B2, “Triterpenes having human antifungal and antiyeast activity” (Naturtek, LLC, priority 2000, dated 2003)
